One assay concerns mouse. As to the kind of experiment: In vivo transfection with cationic lipid complexes containing fusogenic or steric surfactants. Conditions: DOTAP:Chol core complexes; FIG. 7. The procedure: All lipids of a formulation including surfactants were dissolved in an organic solvent such as cyclohexane and mixed together at the desired ratio and then lyophilized to dryness. For example, 45 mg DOTAP and 25 mg cholesterol, or 10 mg GC-030 and 4.74 mg cholesterol were used for DOTAP:Chol and GC-030:Chol, respectively. Double distilled water was added to the lipid cake to give a final concentration of 10 mg/ml of cationic lipid (cholesterol is a neutral lipid that is not counted for calculation of lipid dispersion concentration or later for charge ratio with DNA) and allowed to hydrate at 70 C for 1 hr. The lipid dispersion was extruded through 100 nm pore carbonate membranes (Avanti Polar Lipids Inc) or vortexed for 1 min at room temperature.
Forty microgram of pCILuc was dissolved in 100 μl of 10% glucose and mixed by hand with different amount of lipids dispersion dissolved in 100 μl distilled H2O. The final concentration of Glucose is 5%. The mixing was performed by added the DNA solution to the lipid solution. The charge ratio of lipids to DNA in this mixture was indicated in the text. 200 μl of DNA/lipid complex solutions was injected into mouse tail vein. Each group had 3-5 mice. Five hours later, mice were sacrificed. […] Luciferase activity was determined by using luciferase assay system kit from Promega. […]

A further assay concerns BL-6 cells. The assay is classed as cell-based. Conditions: polylysine core complexes; FIG. 8.
The next assay has as its system HUVEC cells. As to the kind of experiment: Transfection of HUVEC cells with K14RGD/Lipofectin complexes, luciferase. The assay is classed as cell-based. Conditions: added to lipofectin core complexes; FIG. 25. The protocol:
20000 HUVEC cells were seeded to each well of a 96 well plate and cultured for 12 hr before transfection. 0 or 2 ug of K14RGD peptide was mixed with indicated amount of Lipofectin from 0.1 ul to 4 ul in 50 ul of serum free medium for 15 min. The mixture was added to 50 ul serum free medium containing 0.5 ug pCIluc2 DNA. The poly-lipoplex was incubated for 30 min before added to the cells. The transfection solution was removed after 3 hr and serum-containing medium was added to the cells.
At 24 hr, luciferase activity was measured with Promega luciferase assay kit according to the recommended procedure.

`CCCCCCCC/C=C\CCCCCCCC(=O)OCCOCC(OCCO)C1OCC(OCCO)C1OCCO` (stereo not drawn) [Tween 80]: in the assay with mouse, the “gene transfer in vivo, effect of additive” value is “improved”.

For “GLF GAI EGF IEN GWE GWI DGW YGC KCK KKK KKK KKK KKK K [Example K14-Fuso]”, the “expression, effect of fusogenic peptide” value in the assay on BL-6 cells was “increased expression”.

On to “KKK KKK KKK KKK KKS CRG DC [Example K14RGD]”, for which the “expression, effect of peptide ligand” value in the assay with HUVEC cells is “increased expression”.

Values taken from patent US20030166601A1, “Novel colloid synthetic vectors for gene therapy” (priority 1999, published 2003).
